Earlier results in patent US20060204442A1, “Magnetically targetable particles comprising magnetic components and biocompatible polymers for site-specific delivery of biologically active agents” (Bankruptcy Estate of Ferx, Inc., priority 2003, published 2006).

System: cell lines of the national Cancer Institute's Anticancer Drug Screen Panel
Details: Rixe et al., Biochem Pharmacol 52

[NH2][Pt]([NH2])([Cl])[Cl] [CDDP, cisplatin]
IC50, published value: 0.537 µg/mL
